These results are taken from patent US20130261077A1 (priority 2012, published 2013).

By IC50 is commonly meant the concentration that gives 50% inhibition. By Kd is commonly meant a measure of binding affinity in units of concentration. Lower therefore signals higher affinity.

T1 sequence (P08191 22-177): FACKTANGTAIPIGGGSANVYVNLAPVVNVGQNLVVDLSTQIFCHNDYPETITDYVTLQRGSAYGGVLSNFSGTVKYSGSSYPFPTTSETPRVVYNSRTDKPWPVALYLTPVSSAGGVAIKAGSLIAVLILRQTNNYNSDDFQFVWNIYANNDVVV

The first test addresses T1, FimH-CRD (Escherichia coli, UniProt P08191).
T1 construct: The first 177 amino acids of the FimH protein; thrombin tag (printed as 'fusion protein with thrombin') (cleaved yes); made in house; host or cells: bacteria (pET21b plasmid)
Description: Competitive binding assay by fluorescence polarization, assay 1 (compounds prepared by manual serial dilution). In short, it runs like this:
(§1)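 Compounds at 0.4 nM–75 μM final (12 points, 3-fold steps, duplicate) compete with a 5 nM Alexa 647 mannoside probe for 60 nM FimH-CRD; 5 h room-temperature incubation in pH 7.0 Tris buffer with 2.5% DMSO, FP read-out, Kd from fitted curves. Assay 1 uses manual dilution, assay 2 robot-made frozen/thawed plates.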
Background: In fluorescence polarisation assays a small probe gives low polarisation when free and higher when bound to something large.
`Cn1cnc2ccc(-c3cccc([C@H]4O[C@H](CO)[C@@H](O)[C@H](O)[C@@H]4O)c3)cc21` [Compound 4, (2R,3S,4R,5S,6R)-2-(hydroxymethyl)-6-[3-(3-methylbenzimidazol-5-yl)phenyl]tetrahydropyran-3,4,5-triol] had an IC50 of 19 nM and an equilibrium dissociation constant (Kd) of 5.1 ± 0.1 nM.
Compound `OC[C@H]1O[C@H](c2cccc(-c3cncnc3)c2)[C@@H](O)[C@@H](O)[C@@H]1O` [Compound 10, (2R,3S,4R,5S,6R)-2-(hydroxymethyl)-6-(3-pyrimidin-5-ylphenyl)tetrahydropyran-3,4,5-triol] registered an IC50 of 99 nM and a dissociation constant (Kd) of 13.4 ± 6.6 nM.
`OC[C@H]1O[C@H](c2cccc(-c3cc4ccccc4s3)c2)[C@@H](O)[C@@H](O)[C@@H]1O` [Compound 12, (2R,3S,4R,5S,6R)-2-[3-(benzothiophen-2-yl)phenyl]-6-(hydroxymethyl)tetrahydropyran-3,4,5-triol] returned an IC50 of 67 nM and a dissociation constant Kd of 9.2 ± 4.4 nM.
For the compound `N#Cc1ccc(-c2cccc([C@H]3O[C@H](CO)[C@@H](O)[C@H](O)[C@@H]3O)c2)cc1` [Compound 22, 3′-((2R,3S,4R,5S,6R)-3,4,5-trihydroxy-6-(hydroxymethyl)tetrahydro-2H-pyran-2-yl)-[1,1′-biphenyl]-4-carbonitrile], the IC50 amounted to 49 nM and the equilibrium dissociation constant (Kd) amounted to 6.6 ± 0.8 nM.
Compound `CNC(=O)c1cccc([C@H]2O[C@H](CO)[C@@H](O)[C@H](O)[C@@H]2O)c1` [Compound 35, N-methyl-3-((2R,3S,4R,5S,6R)-3,4,5-trihydroxy-6-(hydroxymethyl)tetrahydro-2H-pyran-2-yl)benzamide] registered a half-inhibitory concentration (IC50) of 172 nM and a Kd of 56.2 ± 4.9 nM.
Regarding `CCCCNC(=O)c1cccc([C@H]2O[C@H](CO)[C@@H](O)[C@H](O)[C@@H]2O)c1` [Compound 38, N-butyl-3-((2R,3S,4R,5S,6R)-3,4,5-trihydroxy-6-(hydroxymethyl)tetrahydro-2H-pyran-2-yl)benzamide], binding was put at a Kd of 50.4 ± 3.6 nM.
On to `CNC(=O)c1cc(C(=O)NC)cc(-c2ccccc2[C@H]2O[C@H](CO)[C@@H](O)[C@H](O)[C@@H]2O)c1` [Compound 40, N^3,N^5-dimethyl-2′-((2R,3S,4R,5S,6R)-3,4,5-trihydroxy-6-(hydroxymethyl)tetrahydro-2H-pyran-2-yl)-[1,1′-biphenyl]-3,5-dicarboxamide], for which the concentration for half-maximal inhibition (IC50) was found to be 2050 nM and binding was characterised by a dissociation constant (Kd) of 474 ± 49.5 nM.
As for `COc1cccc([C@H]2O[C@H](CO)[C@@H](O)[C@H](O)[C@@H]2O)c1` [Compound 44, (2R,3S,4R,5S,6R)-2-(hydroxymethyl)-6-(3-methoxyphenyl)tetrahydropyran-3,4,5-triol], the IC50 is 156 nM and binding was put at a Kd of 41.8 ± 11.6 nM.

For a further test, the target named is T1, FimH-CRD. Description: Competitive binding assay by fluorescence polarization, assay 2 (compounds prepared by robotics, plates frozen and thawed). In short, it runs like this: as §1
`Cn1cnc2ccc(-c3cccc([C@H]4O[C@H](CO)[C@@H](O)[C@H](O)[C@@H]4O)c3)cc21` [Compound 4, (2R,3S,4R,5S,6R)-2-(hydroxymethyl)-6-[3-(3-methylbenzimidazol-5-yl)phenyl]tetrahydropyran-3,4,5-triol] registered an equilibrium dissociation constant (Kd) of 13.6 ± 6.1 nM.
The compound `OC[C@H]1O[C@H](c2cccc(-c3cncnc3)c2)[C@@H](O)[C@@H](O)[C@@H]1O` [Compound 10, (2R,3S,4R,5S,6R)-2-(hydroxymethyl)-6-(3-pyrimidin-5-ylphenyl)tetrahydropyran-3,4,5-triol] gave a Kd of 10.1 ± 0.6 nM.
The compound `OC[C@H]1O[C@H](c2cccc(-c3cc4ccccc4s3)c2)[C@@H](O)[C@@H](O)[C@@H]1O` [Compound 12, (2R,3S,4R,5S,6R)-2-[3-(benzothiophen-2-yl)phenyl]-6-(hydroxymethyl)tetrahydropyran-3,4,5-triol] registered a Kd of 11.7 ± 6.1 nM.
On to `N#Cc1ccc(-c2cccc([C@H]3O[C@H](CO)[C@@H](O)[C@H](O)[C@@H]3O)c2)cc1` [Compound 22, 3′-((2R,3S,4R,5S,6R)-3,4,5-trihydroxy-6-(hydroxymethyl)tetrahydro-2H-pyran-2-yl)-[1,1′-biphenyl]-4-carbonitrile], for which the Kd worked out at 14.2 ± 11.1 nM.
`CNC(=O)c1cccc([C@H]2O[C@H](CO)[C@@H](O)[C@H](O)[C@@H]2O)c1` [Compound 35, N-methyl-3-((2R,3S,4R,5S,6R)-3,4,5-trihydroxy-6-(hydroxymethyl)tetrahydro-2H-pyran-2-yl)benzamide]: the equilibrium dissociation constant (Kd) is 113 nM.
The compound `CCCCNC(=O)c1cccc([C@H]2O[C@H](CO)[C@@H](O)[C@H](O)[C@@H]2O)c1` [Compound 38, N-butyl-3-((2R,3S,4R,5S,6R)-3,4,5-trihydroxy-6-(hydroxymethyl)tetrahydro-2H-pyran-2-yl)benzamide] displayed a Kd of 72.4 ± 34.8 nM.
Still for that read-out and setting: the same measure for `CNC(=O)c1cc(C(=O)NC)cc(-c2ccccc2[C@H]2O[C@H](CO)[C@@H](O)[C@H](O)[C@@H]2O)c1` [Compound 40, N^3,N^5-dimethyl-2′-((2R,3S,4R,5S,6R)-3,4,5-trihydroxy-6-(hydroxymethyl)tetrahydro-2H-pyran-2-yl)-[1,1′-biphenyl]-3,5-dicarboxamide]: 447 ± 490 nM.
In turn, `COc1cccc([C@H]2O[C@H](CO)[C@@H](O)[C@H](O)[C@@H]2O)c1` [Compound 44, (2R,3S,4R,5S,6R)-2-(hydroxymethyl)-6-(3-methoxyphenyl)tetrahydropyran-3,4,5-triol] came in with a Kd of 50.4 ± 10.1 nM.
With `Cc1cccc(COc2ccc(C3O[C@H](CO)[C@@H](O)[C@H](O)[C@@H]3O)cc2)n1` (stereo partly drawn) [Compound 228], the Kd was determined as 9.2 ± 0.04 nM.
Still for that read-out and setting: the same measure for `CCC#CCOc1ccc(C2O[C@H](CO)[C@@H](O)[C@H](O)[C@@H]2O)cc1` (stereo partly drawn) [Compound 229]: 33.1 ± 4 nM.
As to `N#CCCCOc1ccc(C2O[C@H](CO)[C@@H](O)[C@H](O)[C@@H]2O)cc1` (stereo partly drawn) [Compound 230], binding was put at a Kd of 13.9 ± 3.6 nM.
As for `CC[C@H](C)COc1ccc(C2O[C@H](CO)[C@@H](O)[C@H](O)[C@@H]2O)cc1` (stereo partly drawn) [Compound 231], binding was characterised by a dissociation constant (Kd) of 8.9 ± 1.4 nM.
For the compound `CC(C)CCOc1ccc(C2O[C@H](CO)[C@@H](O)[C@H](O)[C@@H]2O)cc1` (stereo partly drawn) [Compound 232], the affinity, expressed as Kd, was 8.5 ± 4.2 nM.
Still for that read-out and setting: the figure for `COCCCOc1ccc(C2O[C@H](CO)[C@@H](O)[C@H](O)[C@@H]2O)cc1` (stereo partly drawn) [Compound 233] is 10.3 ± 3.9 nM.
Turning to `OC[C@H]1OC(c2ccc(OCCCCF)cc2)[C@@H](O)[C@@H](O)[C@@H]1O` (stereo partly drawn) [Compound 234], the Kd worked out at 11.4 ± 4.5 nM.
`O=C(COc1ccc(C2O[C@H](CO)[C@@H](O)[C@H](O)[C@@H]2O)cc1)C1CC1` (stereo partly drawn) [Compound 235] yielded a Kd of 14.1 ± 0.3 nM.
In the case of `OC[C@H]1OC(c2ccc(OCC3CCOCC3)cc2)[C@@H](O)[C@@H](O)[C@@H]1O` (stereo partly drawn) [Compound 236], the dissociation constant Kd amounted to 11.5 ± 4.6 nM.
`OC[C@H]1OC(c2ccc(OCc3ccc(F)cc3)cc2)[C@@H](O)[C@@H](O)[C@@H]1O` (stereo partly drawn) [Compound 237] came in with a dissociation constant (Kd) of 7.9 ± 1.6 nM.
Compound `OC[C@H]1OC(c2ccc(OCCc3cccc(F)c3)cc2)[C@@H](O)[C@@H](O)[C@@H]1O` (stereo partly drawn) [Compound 238] gave a Kd of 9.7 nM.
As to `COc1ccc(CCOc2ccc(C3O[C@H](CO)[C@@H](O)[C@H](O)[C@@H]3O)cc2)cc1` (stereo partly drawn) [Compound 239], the dissociation constant (Kd) was determined as 7.7 ± 0.05 nM.
Turning to `OC[C@H]1OC(c2ccc(OCc3cccc4cccnc34)cc2)[C@@H](O)[C@@H](O)[C@@H]1O` (stereo partly drawn) [Compound 240], the dissociation constant Kd was 7.6 ± 0.9 nM.
On to `CC(C)(C)c1ccc(COc2ccc(C3O[C@H](CO)[C@@H](O)[C@H](O)[C@@H]3O)cc2)cc1` (stereo partly drawn) [Compound 241], for which the Kd is 10.2 ± 0.8 nM.
Compound `COc1ccccc1NC(=O)COc1ccc(C2O[C@H](CO)[C@@H](O)[C@H](O)[C@@H]2O)cc1` (stereo partly drawn) [Compound 242] displayed a Kd of 21.5 ± 3.9 nM.
In turn, `COC(=O)CCCOc1ccc(C2O[C@H](CO)[C@@H](O)[C@H](O)[C@@H]2O)cc1` (stereo partly drawn) [Compound 243] gave a Kd of 5.8 nM.
Same read-out and setting: the figure for `OC[C@H]1OC(c2ccc(OCc3ccc4ccccc4c3)cc2)[C@@H](O)[C@@H](O)[C@@H]1O` (stereo partly drawn) [Compound 244] is 23.3 ± 1.1 nM; for `OC[C@H]1OC(c2ccc(OCc3ccccc3)cc2)[C@@H](O)[C@@H](O)[C@@H]1O` (stereo partly drawn) [Compound 245] it is 22.8 ± 2.4 nM.
As to `COC(=O)c1cccc(COc2ccc(C3O[C@H](CO)[C@@H](O)[C@H](O)[C@@H]3O)cc2)c1` (stereo partly drawn) [Compound 246], the Kd amounted to 23.6 ± 5.5 nM.
`O=C(O)c1cccc(COc2ccc(C3O[C@H](CO)[C@@H](O)[C@H](O)[C@@H]3O)cc2)c1` (stereo partly drawn) [Compound 247] had a Kd of 32 ± 5.1 nM.
The same measure, in the same setting: the figure for `CNC(=O)c1ccc(COc2ccc(C3O[C@H](CO)[C@@H](O)[C@H](O)[C@@H]3O)cc2)cc1` (stereo partly drawn) [Compound 249] is 19.6 ± 10.2 nM.
Turning to `OC[C@H]1OC(c2ccc(OCc3cc(Cl)cc(Cl)c3)cc2)[C@@H](O)[C@@H](O)[C@@H]1O` (stereo partly drawn) [Compound 250], the Kd was found to be 40.6 ± 23.4 nM.
`OC[C@H]1OC(c2ccc(OCc3cccc4nonc34)cc2)[C@@H](O)[C@@H](O)[C@@H]1O` (stereo partly drawn) [Compound 251] came in with a Kd of 29.9 ± 13.9 nM.
The same measure, in the same setting: the figure for `OC[C@H]1O[C@H](c2cccc(Oc3ccncc3)c2)[C@@H](O)[C@@H](O)[C@@H]1O` [Compound 252, (2R,3S,4R,5S,6R)-2-(hydroxymethyl)-6-[3-(4-pyridyloxy)phenyl]tetrahydropyran-3,4,5-triol] is 13.2 ± 2.2 nM.
For `OC[C@H]1O[C@H](c2cccc(Oc3nc4ccccc4s3)c2)[C@@H](O)[C@@H](O)[C@@H]1O` [Compound 253, (2R,3S,4R,5S,6R)-2-[3-(1,3-benzothiazol-2-yloxy)phenyl]-6-(hydroxymethyl)tetrahydropyran-3,4,5-triol], the dissociation constant Kd was < 5 nM.
Turning to `OC[C@H]1OC(c2cccc(Oc3ccnc4ccccc34)c2)[C@@H](O)[C@@H](O)[C@@H]1O` (stereo partly drawn) [Compound 254], the Kd was 7.9 nM.
In turn, `OC[C@H]1O[C@H](c2cccc(Oc3ncccn3)c2)[C@@H](O)[C@@H](O)[C@@H]1O` [Compound 256, (2R,3S,4R,5S,6R)-2-(hydroxymethyl)-6-(3-pyrimidin-2-yloxyphenyl)tetrahydropyran-3,4,5-triol] yielded a Kd of 67.6 ± 21.8 nM.
In turn, `O=[N+]([O-])c1ccc(Oc2cccc([C@H]3O[C@H](CO)[C@@H](O)[C@H](O)[C@@H]3O)c2)cn1` [Compound 257, (2R,3S,4R,5S,6R)-2-(hydroxymethyl)-6-[3-[(6-nitro-3-pyridyl)oxy]phenyl]tetrahydropyran-3,4,5-triol] yielded a Kd of 19.2 ± 6.3 nM.
In turn, `Nc1ccc(Oc2cccc([C@H]3O[C@H](CO)[C@@H](O)[C@H](O)[C@@H]3O)c2)cn1` [Compound 258, (2R,3S,4R,5S,6R)-2-[3-[(6-amino-3-pyridyl)oxy]phenyl]-6-(hydroxymethyl)tetrahydropyran-3,4,5-triol] came in with a dissociation constant (Kd) of 31.9 ± 6.3 nM.
Compound `OCc1cccc([C@H]2O[C@H](CO)[C@@H](O)[C@H](O)[C@@H]2O)c1` [Compound 260, (2R,3S,4R,5S,6R)-2-(hydroxymethyl)-6-[3-(hydroxymethyl)phenyl]tetrahydropyran-3,4,5-triol] showed a dissociation constant (Kd) of 125 ± 52.6 nM.
Still for that read-out and setting: the figure for `COC(=O)c1ccc(OCc2cccc([C@H]3O[C@H](CO)[C@@H](O)[C@H](O)[C@@H]3O)c2)cc1` [Compound 261, methyl 4-[[3-[(2R,3S,4R,5S,6R)-3,4,5-trihydroxy-6-(hydroxymethyl)tetrahydropyran-2-yl]phenyl]methoxy]benzoate] is 32.2 ± 8.1 nM; for `OC[C@H]1O[C@H](c2cccc(COc3ccccc3)c2)[C@@H](O)[C@@H](O)[C@@H]1O` [Compound 262, (2R,3S,4R,5S,6R)-2-(hydroxymethyl)-6-[3-(phenoxymethyl)phenyl]tetrahydropyran-3,4,5-triol] it is 26.6 ± 11.4 nM; for `OC[C@H]1O[C@H](c2cccc(COc3cc(Cl)cc(Cl)c3)c2)[C@@H](O)[C@@H](O)[C@@H]1O` [Compound 263, (2R,3S,4R,5S,6R)-2-[3-[(3,5-dichlorophenoxy)methyl]phenyl]-6-(hydroxymethyl)tetrahydropyran-3,4,5-triol] it is 22.3 ± 5 nM.
`CNC(=O)c1ccc(OCc2cccc([C@H]3O[C@H](CO)[C@@H](O)[C@H](O)[C@@H]3O)c2)cc1` [Compound 264, N-methyl-4-[[3-[(2R,3S,4R,5S,6R)-3,4,5-trihydroxy-6-(hydroxymethyl)tetrahydropyran-2-yl]phenyl]methoxy]benzamide] displayed an equilibrium dissociation constant (Kd) of 30.8 ± 9.1 nM.
